From PubChem BioAssay AID248 (DTP/NCI, 2004)
Where “and” joins values, the source holds several entries; their conditions need not be identical. Identical values can stand only once. Toxic doses and inconclusive results are not listed. Cut-off read from the data, not from the text of the source: active = T/C of 150% or more; inactive = T/C below 125%.

System: L1210 leukemia ip in BDF1 mice, survival T/C
Assay: NCI In Vivo Anticancer Drug Screen. Data for tumor model L1210 Leukemia (intraperitoneal) in B6D2F1 (BDF1) mice
Details: endpoint: mean survival time, higher = longer survival
Method in brief: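 Antitumor effect is assessed in tumor-bearing animals. Survival in the compound arm is compared with a vehicle-dosed control arm and expressed as their quotient.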

[1] = dose: 100.0 mg/kg/injection, schedule: Q01DX009 (ip), vehicle: saline
[2] = dose: 100.0 mg/kg/injection, schedule: Q04DX003 (ip), vehicle: saline
[3] = dose: 200.0 mg/kg/injection, schedule: Q01DX009 (ip), vehicle: saline
[4] = dose: 200.0 mg/kg/injection, schedule: Q04DX003 (ip), vehicle: saline
[5] = dose: 400.0 mg/kg/injection, schedule: Q01DX009 (ip), vehicle: saline
[6] = dose: 400.0 mg/kg/injection, schedule: Q04DX003 (ip), vehicle: saline
[7] = dose: 100.0 mg/kg/injection, schedule: Q04DX003 (ip), vehicle: Klucel (hydroxypropylcellulose) (HPC)
[8] = dose: 200.0 mg/kg/injection, schedule: Q04DX003 (ip), vehicle: Klucel (hydroxypropylcellulose) (HPC)
[9] = dose: 400.0 mg/kg/injection, schedule: Q04DX003 (ip), vehicle: Klucel (hydroxypropylcellulose) (HPC)
[10] = dose: 100.0 mg/kg/injection, schedule: Q01DX001 (ip), vehicle: carboxymethylcellulose (CMC)
[11] = dose: 200.0 mg/kg/injection, schedule: Q01DX001 (ip), vehicle: carboxymethylcellulose (CMC)
[12] = dose: 400.0 mg/kg/injection, schedule: Q01DX001 (ip), vehicle: carboxymethylcellulose (CMC)
[13] = dose: 100.0 mg/kg/injection, schedule: Q01DX001 (ip), vehicle: saline
[14] = dose: 200.0 mg/kg/injection, schedule: Q01DX001 (ip), vehicle: saline
[15] = dose: 50.0 mg/kg/injection, schedule: Q01DX009 (ip), vehicle: saline with Tween-80
[16] = dose: 100.0 mg/kg/injection, schedule: Q01DX009 (ip), vehicle: saline with Tween-80
[17] = dose: 100.0 mg/kg/injection, schedule: Q01DX009 (ip), vehicle: Klucel (hydroxypropylcellulose) (HPC)
[18] = dose: 200.0 mg/kg/injection, schedule: Q01DX009 (ip), vehicle: Klucel (hydroxypropylcellulose) (HPC)
[19] = dose: 400.0 mg/kg/injection, schedule: Q01DX009 (ip), vehicle: Klucel (hydroxypropylcellulose) (HPC)
[20] = dose: 100.0 mg/kg/injection, schedule: Q04DX002 (ip), vehicle: Klucel (hydroxypropylcellulose) (HPC)
[21] = dose: 200.0 mg/kg/injection, schedule: Q04DX002 (ip), vehicle: Klucel (hydroxypropylcellulose) (HPC)
[22] = dose: 400.0 mg/kg/injection, schedule: Q04DX002 (ip), vehicle: Klucel (hydroxypropylcellulose) (HPC)
[23] = dose: 100.0 mg/kg/injection, schedule: Q04DX003 (ip), vehicle: saline with Tween-80
[24] = dose: 200.0 mg/kg/injection, schedule: Q04DX003 (ip), vehicle: saline with Tween-80
[25] = dose: 400.0 mg/kg/injection, schedule: Q04DX003 (ip), vehicle: saline with Tween-80
[26] = dose: 25.0 mg/kg/injection, schedule: Q01DX001 (ip), vehicle: saline with Tween-80

Measured: T/C

NC(N)=N/N=C/c1cc([N+](=O)[O-])ccc1O
inactive: dose: 15.0 mg/kg/injection, schedule: Q01DX Z (ip), vehicle: saline 120 % of control | dose: 30.0 mg/kg/injection, schedule: Q01DX Z (ip), vehicle: saline 98 % of control | dose: 60.0 mg/kg/injection, schedule: Q01DX Z (ip), vehicle: saline 98 % of control | dose: 60.0 mg/kg/injection, schedule: Q01DX Z (oral), vehicle: saline 100 % of control | dose: 120.0 mg/kg/injection, schedule: Q01DX Z (ip), vehicle: saline 96 % of control | dose: 120.0 mg/kg/injection, schedule: Q01DX Z (oral), vehicle: saline 96 % of control

CCN1C(=O)/C(=C/c2ccncc2)SC1=S
inactive: dose: 50.0 mg/kg/injection, schedule: Q01DX Z (ip), vehicle: carboxymethylcellulose (CMC) 96 % of control | dose: 100.0 mg/kg/injection, schedule: Q01DX Z (ip), vehicle: carboxymethylcellulose (CMC) 92 % of control | dose: 200.0 mg/kg/injection, schedule: Q01DX Z (ip), vehicle: carboxymethylcellulose (CMC) 94 % of control | dose: 400.0 mg/kg/injection, schedule: Q01DX Z (ip), vehicle: carboxymethylcellulose (CMC) 91 % of control

COc1ccc(Cl)cc1NC(=O)Nc1ccc(CCO)cc1
inactive: [1] 100 % of control | [2] 113 % of control | [3] 91 % of control | [4] 103 % of control | [5] 93 % of control | [6] 101 % of control

O=C(Nc1ccccc1)OC1CCCC1
inactive: [7] 101 % of control | [8] 101 % of control | [9] 96 % of control

COC(=O)C(N)CSCSC (stereo unspecified)
inactive: [1] 107 % of control | [2] 103 % of control | [3] 101 % of control | [4] 105 % of control | [5] 101 % of control | [6] 97 % of control

CN(N=O)c1ccc(/C=C/c2ccnc3ccccc23)cc1
inactive: dose: 50.0 mg/kg/injection, schedule: Q01DX001 (ip), vehicle: carboxymethylcellulose (CMC) 98 % of control | [10] 93 % of control | [11] 93 % of control | [12] 91 % of control

O=C1OC2CCCCC2OC1=O (stereo unspecified)
inactive: [13] 101 % of control | [14] 101 % of control

Cc1nccn1-c1ccc(N=Cc2ccc(N(CCCl)CCCl)cc2Cl)cc1
inactive: dose: 62.5 mg/kg/injection, schedule: Q04DX002 (ip), vehicle: Klucel (hydroxypropylcellulose) (HPC) 102 % of control | dose: 125.0 mg/kg/injection, schedule: Q04DX002 (ip), vehicle: Klucel (hydroxypropylcellulose) (HPC) 98 % of control | dose: 250.0 mg/kg/injection, schedule: Q04DX002 (ip), vehicle: Klucel (hydroxypropylcellulose) (HPC) 106 % of control

[O-][n+]1c(Cl)cc(Cl)c2ccccc21
inactive: dose: 25.0 mg/kg/injection, schedule: Q01DX009 (ip), vehicle: saline with Tween-80 95 % of control | [15] 114 % of control | [16] 97 % of control and 102 % of control

COc1cccc2c1OC1(N3CCOCC3)CCCCC1C2C[N+](=O)[O-] (stereo unspecified)
inactive: [17] 97 % of control | [18] 105 % of control | [19] 94 % of control

O=C(/C(=C/c1ccc2c(c1)OCO2)c1ccccc1)c1ccc(OCCN2CCCC2)cc1
inactive: [10] 95 % of control | [11] 106 % of control | [12] 95 % of control

c1ccc(N2CC2)cc1
inactive: dose: 100.0 mg/kg/injection, schedule: Q01DX001 (ip), vehicle: Klucel (hydroxypropylcellulose) (HPC) 105 % of control | dose: 200.0 mg/kg/injection, schedule: Q01DX001 (ip), vehicle: Klucel (hydroxypropylcellulose) (HPC) 100 % of control | dose: 400.0 mg/kg/injection, schedule: Q01DX001 (ip), vehicle: Klucel (hydroxypropylcellulose) (HPC) 96 % of control

CC(=O)c1c(O)cc(C)c(Cl)c1C
inactive: [17] 94 % of control | [18] 100 % of control | [19] 103 % of control

O=C(COc1ccc(Cl)cc1C(=O)O)NCc1ccc(NC(=O)Nc2cccc(S(=O)(=O)F)c2)cc1
inactive: [13] 96 % of control | [14] 93 % of control | dose: 400.0 mg/kg/injection, schedule: Q01DX001 (ip), vehicle: saline 104 % of control

[N-]=[N+]=CS(=O)(=O)c1ccccc1-c1ccccc1
inactive: [7] 104 % of control | [8] 103 % of control | [9] 95 % of control

CN(C)CCN(C)C(=O)C(c1ccccc1)C1CCCCC1 (stereo unspecified)
inactive: dose: 75.0 mg/kg/injection, schedule: Q01DX001 (ip), vehicle: saline 103 % of control | dose: 150.0 mg/kg/injection, schedule: Q01DX001 (ip), vehicle: saline 97 % of control

CCOC(=O)c1ccc(NC(=O)/C=C/c2ccccc2)cc1
inactive: [17] 97 % of control | [18] 95 % of control | [19] 97 % of control

CCOc1ccc(/C=N/NC(=O)c2ccc(N=NN(C)C)cc2)cc1
inactive: dose: 75.0 mg/kg/injection, schedule: Q04DX003 (ip), vehicle: Klucel (hydroxypropylcellulose) (HPC) 94 % of control | dose: 150.0 mg/kg/injection, schedule: Q04DX003 (ip), vehicle: Klucel (hydroxypropylcellulose) (HPC) 90 % of control | dose: 300.0 mg/kg/injection, schedule: Q04DX003 (ip), vehicle: Klucel (hydroxypropylcellulose) (HPC) 87 % of control

CC1CC(C(=O)O)C(Cc2ccc([N+](=O)[O-])cc2)C1=O (stereo unspecified)
inactive: [20] 93 % of control | [21] 93 % of control | [22] 89 % of control

CC(C)=CCC/C(C)=C/CNc1ncnc2nc[nH]c12
inactive: [15] 103 % of control | [16] 100 % of control | dose: 100.0 mg/kg/injection, schedule: Q04DX003 (ip), vehicle: acetone 94 % of control | [23] 94 % of control | dose: 200.0 mg/kg/injection, schedule: Q01DX009 (ip), vehicle: saline with Tween-80 100 % of control | dose: 200.0 mg/kg/injection, schedule: Q04DX003 (ip), vehicle: acetone 101 % of control | [24] 95 % of control | dose: 400.0 mg/kg/injection, schedule: Q01DX009 (ip), vehicle: saline with Tween-80 105 % of control | [25] 90 % of control

Fc1ccc(NC2(c3nnnn3C3CCCCC3)CCNCC2)cc1
inactive: dose: 6.25 mg/kg/injection, schedule: Q01DX001 (ip), vehicle: saline with Tween-80 102 % of control | dose: 12.5 mg/kg/injection, schedule: Q01DX001 (ip), vehicle: saline with Tween-80 100 % of control | [26] 98 % of control

Cc1ccc(S(=O)(=O)N(C)Cc2ccccc2)cc1
inactive: [23] 95 % of control | [24] 101 % of control | [25] 101 % of control

Cc1cc(O)cc(=O)o1
inactive: [17] 97 % of control and 89 % of control | [7] 101 % of control and 86 % of control | [18] 95 % of control and 100 % of control | [8] 101 % of control and 103 % of control | [19] 94 % of control and 100 % of control | [9] 92 % of control and 102 % of control

O=c1[nH]c(Cc2ccccc2)c(N=Nc2ccccc2)c(=O)[nH]1
inactive: [26] 93 % of control | dose: 50.0 mg/kg/injection, schedule: Q01DX001 (ip), vehicle: saline with Tween-80 93 % of control | dose: 100.0 mg/kg/injection, schedule: Q01DX001 (ip), vehicle: saline with Tween-80 93 % of control

CC(CC(=O)c1cc(Cl)ccc1O)CC(C)(C)C (stereo unspecified)
inactive: dose: 75.0 mg/kg/injection, schedule: Q01DX009 (ip), vehicle: Klucel (hydroxypropylcellulose) (HPC) 114 % of control | [20] 97 % of control | dose: 150.0 mg/kg/injection, schedule: Q01DX009 (ip), vehicle: Klucel (hydroxypropylcellulose) (HPC) 97 % of control | [21] 93 % of control | dose: 300.0 mg/kg/injection, schedule: Q01DX009 (ip), vehicle: Klucel (hydroxypropylcellulose) (HPC) 100 % of control | [22] 104 % of control
